ChEMBL document CHEMBL1201862, “PubChem BioAssay data set” (2004)
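Dose response: 5 concentrations. Exposure: 48 h. Format: 96-well plates. Endpoint: linear interpolation; highest concentration if not reached. The concentration for 50% growth inhibition is given as GI50.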 Active and inactive are the calls of the source. No stated cut-off is given here; in the data, active = GI50 up to about 1.1 µM and inactive = higher.

Columns and labels:
Assay in all cases: growth of human tumour cells (NCI), 48 h
[1] = test system: A498
[2] = test system: SK-OV-3
[3] = test system: NCI-H23
[4] = test system: MCF7
[5] = test system: CCRF-CEM
[6] = test system: NCI-H460
[7] = test system: A549
[8] = test system: M14
[9] = test system: HOP-92
[10] = test system: MDA-MB-435
[11] = test system: MDA-N
[12] = test system: Malme-3M
[13] = test system: CAKI-1
[14] = test system: SNB-75
[15] = test system: MDA-MB-231
[16] = test system: PC-3
[17] = test system: DU-145
[18] = test system: OVCAR-8
[19] = test system: 786-0
[20] = test system: IGROV-1

Row | Compound | GI50 [1] | GI50 [2] | GI50 [3] | GI50 [4] | GI50 [5] | GI50 [6] | GI50 [7] | GI50 [8] | GI50 [9] | GI50 [10] | GI50 [11] | GI50 [12] | GI50 [13] | GI50 [14] | GI50 [15] | GI50 [16] | GI50 [17] | GI50 [18] | GI50 [19] | GI50 [20]
1 | O=C1CC(=O)NC(NN2C(=O)CSC2c2ccc(Cl)c(Cl)c2)=N1 (stereo not given) | > 100 µM (inactive) | > 100 µM (inactive) | > 100 µM (inactive) | > 100 µM (inactive) | 19.5 µM (inactive) | > 100 µM (inactive) | > 100 µM (inactive) | 31.6 µM (inactive) | > 100 µM (inactive) | 65 µM (inactive) | 82.8 µM (inactive) | > 100 µM (inactive) | > 100 µM (inactive) | 75 µM (inactive) | > 100 µM (inactive) | > 100 µM (inactive) | > 100 µM (inactive) | > 100 µM (inactive) | > 100 µM (inactive) | 50.9 µM (inactive)
2 | Cc1ccccc1C1=C/C(=C(\SS/C(C(=O)c2ccc(OCC(=O)O)c(Cl)c2Cl)=C2\C=C(c3ccccc3C)SS2)C(=O)c2ccc(OCC(=O)O)c(Cl)c2Cl)SS1 | 32.4 µM (inactive) | 39.9 µM (inactive) | 21.5 µM (inactive) | 31.4 µM (inactive) | 12.5 µM (inactive) | 26.4 µM (inactive) | 46.9 µM (inactive) | 25.5 µM (inactive) | 5.51 µM (inactive) | 36.1 µM (inactive) | 34.1 µM (inactive) | 40.1 µM (inactive) | 37.6 µM (inactive) | 34.7 µM (inactive) | 22.6 µM (inactive) | 6.92 µM (inactive) | 39.4 µM (inactive) | 26.3 µM (inactive) | 33.3 µM (inactive) | 16.4 µM (inactive)
3 | O=C1Nc2ccccc2/C1=C\c1c(Cl)nc2n1CCS2 | 18.8 µM (inactive) | 19.5 µM (inactive) | 23.7 µM (inactive) | 13 µM (inactive) | 26.9 µM (inactive) | 18.2 µM (inactive) | 31.3 µM (inactive) | 33.7 µM (inactive) | 34 µM (inactive) | 12.6 µM (inactive) | 15.7 µM (inactive) | 23.7 µM (inactive) | 34.8 µM (inactive) | 22.3 µM (inactive) | 19 µM (inactive) | 24.5 µM (inactive) | 30.6 µM (inactive) | 34.4 µM (inactive) | 23.4 µM (inactive) | 32.7 µM (inactive)
4 | C=CCN1C(=O)/C(=C/c2ccccc2)N=C1SC1OC(COC(C)=O)C(OC(C)=O)C(OC(C)=O)C1OC(C)=O (stereo not given) | 38.1 µM (inactive) | 38.7 µM (inactive) | 24.9 µM (inactive) | 28.5 µM (inactive) | 22.5 µM (inactive) | 42.8 µM (inactive) | 34 µM (inactive) | 30 µM (inactive) | 23.7 µM (inactive) | 26.9 µM (inactive) | 29 µM (inactive) | 19.5 µM (inactive) | 16.3 µM (inactive) | 21.9 µM (inactive) | 18.6 µM (inactive) | 16.5 µM (inactive) | 26.6 µM (inactive) | 29.5 µM (inactive) | 23.9 µM (inactive) | 28.3 µM (inactive)
5 | CC(=O)n1nc(-c2[nH]c(C)c(-c3nn(C(C)=O)c(=S)o3)c2C)oc1=S | > 100 µM (inactive) | > 100 µM (inactive) | > 100 µM (inactive) | > 100 µM (inactive) | 12.9 µM (inactive) | > 100 µM (inactive) | > 100 µM (inactive) | > 100 µM (inactive) | > 100 µM (inactive) | > 100 µM (inactive) | > 100 µM (inactive) | 30.1 µM (inactive) | > 100 µM (inactive) | > 32.3 µM (inactive) | > 100 µM (inactive) | > 100 µM (inactive) | > 100 µM (inactive) | > 100 µM (inactive) | 97.7 µM (inactive) | > 100 µM (inactive)
6 | C[C@H]1CC[C@H](NC(=O)N(CCCl)N=O)CC1 | 53 µM (inactive) | 77.3 µM (inactive) | 54.5 µM (inactive) | 50.4 µM (inactive) | 13.2 µM (inactive) | 39.1 µM (inactive) | 51.3 µM (inactive) | 27.6 µM (inactive) | 24.4 µM (inactive) | 28.1 µM (inactive) | 44.8 µM (inactive) | 47.9 µM (inactive) | 27.2 µM (inactive) | 31.1 µM (inactive) | 48 µM (inactive) | 47.9 µM (inactive) | 82.4 µM (inactive) | 53.2 µM (inactive) | 31.6 µM (inactive) | 38.8 µM (inactive)
7 | CCc1nc(N)nc(N)c1-c1ccc(Cl)cc1 [PYRIMETHAMINE] | 13.3 µM (inactive) | 74.3 µM (inactive) | 5.79 µM (inactive) | 11.1 µM (inactive) | 3.33 µM (inactive) | 2.79 µM (inactive) | 1.47 µM (inactive) | 5.71 µM (inactive) | 21.3 µM (inactive) | 8.36 µM (inactive) | 4.83 µM (inactive) | 18.2 µM (inactive) | 71.9 µM (inactive) | 44.9 µM (inactive) | 9.25 µM (inactive) | 6.5 µM (inactive) | 18.7 µM (inactive) | 5.79 µM (inactive) | 4.59 µM (inactive) | 9.86 µM (inactive)
8 | O=C1C(Cl)=C(Nc2ccc(OC(F)(F)F)cc2)C(=O)c2c(O)ccc(O)c21 | 3.87 µM (inactive) | 1.66 µM (inactive) | 0.303 µM (active) | 0.46 µM (active) | 0.377 µM (active) | 1.71 µM (inactive) | 1.22 µM (inactive) | 0.423 µM (active) | 0.826 µM (active) | 0.873 µM (active) | 2.22 µM (inactive) | 1.01 µM (active) | 1.6 µM (inactive) | 0.735 µM (active) | 0.443 µM (active) | 0.679 µM (active) | 0.705 µM (active) | 0.71 µM (active) | 0.445 µM (active) | 0.745 µM (active)
9 | O=C1CCCC1C(=O)Nc1ccc2ccccc2c1 (stereo not given) | > 100 µM (inactive) | > 100 µM (inactive) | > 100 µM (inactive) | > 100 µM (inactive) | 57 µM (inactive) | > 100 µM (inactive) | > 100 µM (inactive) | > 100 µM (inactive) | > 100 µM (inactive) | > 100 µM (inactive) | > 100 µM (inactive) | > 100 µM (inactive) | > 100 µM (inactive) | 29.4 µM (inactive) | > 100 µM (inactive) | > 100 µM (inactive) | > 100 µM (inactive) | > 100 µM (inactive) | > 100 µM (inactive) | > 100 µM (inactive)
10 | CC(C)c1ccc(O)c(=O)c(O)c1.CC(C)c1ccc(O)c(=O)cc1.CC(C)c1cccc(=O)c(O)c1.CC(C)c1ccccc(=O)c1O | 2.06 µM (inactive) | 4.37 µM (inactive) | 0.851 µM (active) | 0.935 µM (active) | 0.21 µM (active) | 0.191 µM (active) | 1.07 µM (active) | 1.8 µM (inactive) | 5.94 µM (inactive) | 2.1 µM (inactive) | 3.32 µM (inactive) | 1.43 µM (inactive) | 1.36 µM (inactive) | 2.02 µM (inactive) | 1.79 µM (inactive) | 0.416 µM (active) | 1.42 µM (inactive) | 0.604 µM (active) | 0.719 µM (active) | 1.36 µM (inactive)
11 | S=P(N1CC1)(N1CC1)N1CC1 [THIOTEPA] | 126 µM (inactive) | 101 µM (inactive) | 36.1 µM (inactive) | 30.7 µM (inactive) | 9.46 µM (inactive) | 5.33 µM (inactive) | 50.4 µM (inactive) | 72.1 µM (inactive) | 112 µM (inactive) | 158 µM (inactive) | 161 µM (inactive) | 141 µM (inactive) | 30.3 µM (inactive) | 97.3 µM (inactive) | 274 µM (inactive) | 217 µM (inactive) | 32.1 µM (inactive) | 110 µM (inactive) | 39.8 µM (inactive) | 158 µM (inactive)
12 | CCOC(=O)c1ccc(NCc2ccc3oc(=O)c(-c4ccccc4)nc3c2)cc1 | 61.1 µM (inactive) | > 100 µM (inactive) | 19.1 µM (inactive) | 15.8 µM (inactive) | 3.46 µM (inactive) | > 100 µM (inactive) | 68.5 µM (inactive) | 31.3 µM (inactive) | 31.2 µM (inactive) | 16.2 µM (inactive) | 21.5 µM (inactive) | 18.8 µM (inactive) | 5.2 µM (inactive) | 9.48 µM (inactive) | 64.7 µM (inactive) | 45.2 µM (inactive) | 36.2 µM (inactive) | 18.8 µM (inactive) | 34.5 µM (inactive) | 67 µM (inactive)
13 | Clc1cccc(C2ON=C(c3ccccc3)N2C23CC4CC(CC(C4)C2)C3)c1Cl (stereo not given) | > 10 µM (inactive) | > 10 µM (inactive) | > 10 µM (inactive) | > 10 µM (inactive) | > 10 µM (inactive) | > 10 µM (inactive) | > 10 µM (inactive) | > 10 µM (inactive) | 2.72 µM (inactive) | > 10 µM (inactive) | > 10 µM (inactive) | > 10 µM (inactive) | > 10 µM (inactive) | > 10 µM (inactive) | > 10 µM (inactive) | 6.41 µM (inactive) | > 10 µM (inactive) | > 10 µM (inactive) | > 10 µM (inactive) | > 10 µM (inactive)
14 | N/C(S)=N/N=C/c1ccc(N)cn1 | > 8.15 µM (inactive) | 9.84 µM (inactive) | 2.13 µM (inactive) | 3.01 µM (inactive) | 1.93 µM (inactive) | 3.09 µM (inactive) | 3.54 µM (inactive) | 2.21 µM (inactive) | 3.44 µM (inactive) | 5.9 µM (inactive) | > 6.59 µM (inactive) | 4.42 µM (inactive) | 3.78 µM (inactive) | 2.4 µM (inactive) | > 6.79 µM (inactive) | 6.15 µM (inactive) | 2.75 µM (inactive) | 3.18 µM (inactive) | 2.43 µM (inactive) | > 10 µM (inactive)
